Test results: patent US20190152957A1, “PYRIDIN-3-YL ACETIC ACID DERIVATIVES AS INHIBITORS OF HUMAN IMMUNODEFICIENCY VIRUS REPLICATION” (ViiV HEALTHCARE UK (NO.5) LIMITED, priority 2016, published 2019)
pEC50: −log10 of the molar value. Read-outs that look alike come from different tables or passages of the source.

Tested on: recombinant NL-RLuc virus (HIV NL4-3 with Renilla Luciferase gene) in MT-2 cells
Assay: Inhibition of HIV replication (NL-RLuc virus, luciferase readout in MT-2 cells)
Format: cell-based
Settings: MT2, 120 h; for pEC50: read-out: Activity; for EC50: read-out: EC50 μM
Source text: Inhibition of HIV Replication:
A recombinant NL-RLuc proviral clone was constructed in which a section of the nef gene from NL4-3 was replaced with the Renilla Luciferase gene. This virus is fully infectious and can undergo multiple cycles of replication in cell culture. In addition, the luciferous reporter provides a simple and easy method for quantitating the extent of virus growth and consequently, the antiviral activity of test compounds. The plasmid pNLRLuc contains the proviral NL-Rluc DNA cloned into pUC18 at the PvuII site. The NL-RLuc virus was prepared by transfection of 293T cells with the plasmid pNLRLuc. Transfections were performed using the LipofectAMINE PLUS kit from Invitrogen (Carlsbad, Calif.) according to the manufacturer and the virus generated was titered in MT-2 cells. For susceptibility analyses, the titrated virus was used to infect MT-2 cells in the presence of compound, and after 5 days of incubation, cells were processed and quantitated for virus growth by the amount of expressed luciferase. Assay media was RPMI 1640 supplemented with 10% heat inactivated fetal bovine serum (FBS), 100 units/ml penicillin G/100 units/ml streptomycin, 10 mM HEPES buffer pH 7.55 and 2 mM L-glutamine. The results from at least 2 experiments were used to calculate the EC50 values. Luciferase was quantitated using the Dual Luciferase kit from Promega (Madison, Wis.). Susceptibility of viruses to compounds was determined by incubation in the presence of serial dilutions of the compound. The 50% effective concentration (EC50) was calculated by using the exponential form of the median effect equation where (Fa)=1/[1+(ED50/drug conc.)^m](Johnson V A, Byington R T. Infectivity Assay. In Techniques in HIV Research. ed. Aldovini A, Walker BD. 71-76. New York: Stockton Press. 1990). Activity equal to A refers to a compound having an EC50≤100 nM, while B and C denote compounds having an EC50 between 100 nM and 1 uM (B) or >1 uM (C).

| SMILES | pEC50 | EC50 |
| --- | --- | --- |
| CCc1ncc(CN2CCc3cc(-c4c(C)nc(C)c([C@H](OC(C)(C)C)C(=O)O)c4N4CCC(C)(C)CC4)ccc3C2)[nH]1 [Compound 21, (S)-2-(tert-butoxy)-2-(4-(4,4-dimethylpiperidin-1-yl)-5-(2-((2-ethyl-1H-imidazol-5-yl)methyl)-1,2,3,4-tetrahydroisoquinolin-6-yl)-2,6-dimethylpyridin-3-yl)acetic acid] | < 6.00 | 1.54 µM |
| CCn1cc(CN2CCc3cc(-c4c(C)nc(C)c([C@H](OC(C)(C)C)C(=O)O)c4N4CCC(C)(C)CC4)ccc3C2)c(C)n1 [Compound 22, (S)-2-(tert-butoxy)-2-(4-(4,4-dimethylpiperidin-1-yl)-5-(2-((1-ethyl-3-methyl-1H-pyrazol-4-yl)methyl)-1,2,3,4-tetrahydroisoquinolin-6-yl)-2,6-dimethylpyridin-3-yl)acetic acid] | > 7.00 | – |
| Cc1noc(C)c1CN1CCc2cc(-c3c(C)nc(C)c([C@H](OC(C)(C)C)C(=O)O)c3N3CCC(C)(C)CC3)ccc2C1 [Compound 23, (S)-2-(tert-butoxy)-2-(5-(2-((3,5-dimethylisoxazol-4-yl)methyl)-1,2,3,4-tetrahydroisoquinolin-6-yl)-4-(4,4-dimethylpiperidin-1-yl)-2,6-dimethylpyridin-3-yl)acetic acid] | > 7.00 | – |
| Cc1nc(C)c([C@H](OC(C)(C)C)C(=O)O)c(N2CCC(C)(C)CC2)c1-c1ccc2c(c1)CCN(Cc1nn(C)cc1Cl)C2 [Compound 24, (S)-2-(tert-butoxy)-2-(5-(2-((4-chloro-1-methyl-1H-pyrazol-3-yl)methyl)-1,2,3,4-tetrahydroisoquinolin-6-yl)-4-(4,4-dimethylpiperidin-1-yl)-2,6-dimethylpyridin-3-yl)acetic acid] | > 7.00 | – |
| Cc1nc(C)c([C@H](OC(C)(C)C)C(=O)O)c(N2CCC(C)(C)CC2)c1-c1ccc2c(c1)CCN(Cc1cc(-c3ccccc3)on1)C2 [Compound 25, (S)-2-(tert-butoxy)-2-(4-(4,4-dimethylpiperidin-1-yl)-2,6-dimethyl-5-(2-((5-phenylisoxazol-3-yl)methyl)-1,2,3,4-tetrahydroisoquinolin-6-yl)pyridin-3-yl)acetic acid] | > 7.00 | 0.012 µM |
| Cc1nc(C)c([C@H](OC(C)(C)C)C(=O)O)c(N2CCC(C)(C)CC2)c1-c1ccc2c(c1)CCN(Cc1ccn[nH]1)C2 [Compound 26, (S)-2-(5-(2-((1H-pyrazol-5-yl)methyl)-1,2,3,4-tetrahydroisoquinolin-6-yl)-4-(4,4-dimethylpiperidin-1-yl)-2,6-dimethylpyridin-3-yl)-2-(tert-butoxy)acetic acid] | > 7.00 | – |
| Cc1nc(C)c([C@H](OC(C)(C)C)C(=O)O)c(N2CCC(C)(C)CC2)c1-c1ccc2c(c1)CCN(Cc1c[nH]nn1)C2 [Compound 27, (S)-2-(5-(2-((1H-1,2,3-triazol-4-yl)methyl)-1,2,3,4-tetrahydroisoquinolin-6-yl)-4-(4,4-dimethylpiperidin-1-yl)-2,6-dimethylpyridin-3-yl)-2-(tert-butoxy)acetic acid] | 6.00 to 7.00 | – |
| Cc1nc(C)c([C@H](OC(C)(C)C)C(=O)O)c(N2CCC(C)(C)CC2)c1-c1ccc2c(c1)CCN(Cc1ccnc(Cl)c1F)C2 [Compound 28, (S)-2-(tert-butoxy)-2-(5-(2-((2-chloro-3-fluoropyridin-4-yl)methyl)-1,2,3,4-tetrahydroisoquinolin-6-yl)-4-(4,4-dimethylpiperidin-1-yl)-2,6-dimethylpyridin-3-yl)acetic acid] | > 7.00 | – |
| CCOc1ncccc1CN1CCc2cc(-c3c(C)nc(C)c([C@H](OC(C)(C)C)C(=O)O)c3N3CCC(C)(C)CC3)ccc2C1 [Compound 29, (S)-2-(tert-butoxy)-2-(4-(4,4-dimethylpiperidin-1-yl)-5-(2-((2-ethoxypyridin-3-yl)methyl)-1,2,3,4-tetrahydroisoquinolin-6-yl)-2,6-dimethylpyridin-3-yl)acetic acid] | > 7.00 | – |
